Experiments:
[1] = Stability of the isolated compound (solid state; in dichloromethane solution); assay type: physicochemical; conditions: solid state conditions at -20° C.
Method: 2. The isolated compound was stable and pure (purity > 95% by HPLC) at solid state conditions at -20° C.
4. During NMR experiments observed partially isomerization of isolated compound. The dissolving in dichloromethane at 20 mg/ml concentration leads to steady state between major and minor isomers with ratio ~75:25. HPLC analyses of NMR solution show only one peak of isolated compound.

[2] = system: HPAF-II and PL45 human pancreatic cancer cells; assay: Annexin-V/PI assay, induction of apoptosis; assay type: cell-based; conditions: low doses, 4 hours of exposure
Method: Particularly, Cell death was analyzed by staining the cells with FITC-labeled Annexin V and propedium iodide (PI) using an Annexin V-FITC apoptosis detection kit, (MBL, Nagoya, Japan), according to the manufacturer’s instructions.

[3] = system: HPAF-II and PL45 human pancreatic cancer cells; assay: XTT assay, cell viability / proliferation; assay type: cell-based
Method: Reference is now made to FIG. 4, presenting the effect of Striatal C on the viability of HPAF-II and PL45 human pancreatic cancer cells, in comparison to the effect of the Cyathus striatus CBS 126585 extract on the same cells, wherein the measurements of the effects are based on an XTT assay. Particularly, cell proliferation was determined using the sodium 3′-[1-(phenylaminocarbonyl)-3,4-tetrazolium]-bis (4-methoxy-6-nitro) benzene sulfonic acid hydrate (XTT) assay, according to the manufacturer’s instructions (Biological Industries, Beit Haemek, Israel).

stability at solid state [1] | SMILES | induction of apoptosis [2] | most effective concentration ([3]; control 0 µg/ml) [µg/mL] | effect on cell viability ([3]; low doses, 4 hours of exposure)
stable | CC(C)C1=C2[C@H]3[C@@H](O)C=C(C=O)[C@@H]4C(O[C@@H]5OC[C@@H](O)C(=O)[C@@]54O)[C@]3(C)CC[C@@]2(C)CC1 (stereo partly shown) [isolated compound] |  |  | 
 | CC(C)C1=C2C3=CC=C(C=O)[C@@H]4C(O[C@@H]5OC[C@@H](O)C(=O)[C@@]54O)[C@]3(C)CC[C@@]2(C)CC1 (stereo partly shown) [Striatal C] | induction of apoptosis | 10 | profound decrease in cell viability
